Patent publication US5554789A, “Arylpropionic derivative, a process for the preparation and the use thereof as an analgesic agent” (Laboratorios Menarini S.A., priority 1992, dated 1996)
Counter-ions that a name gives are not always drawn. Like-named read-outs stand apart in the source and are kept apart here.

Tests used:
[1] = test system: Swiss male mice; assay: Phenylbenzoquinone writhing test (analgesic activity); type: in vivo
[2] = cited from earlier work
[3] = Hygroscopicity; type: physicochemical
[4] = pH in aqueous solution; type: physicochemical
[5] = Analgesic action (general statements); type: in vivo
[6] = Toxicity (general statement); conditions: compared with the other derivatives
[7] = Gastrolesive effect in animals
[8] = Plasmatic levels of the (+)-(S) enantiomer in humans; conditions: vs (+)-(S)-ketoprofen free acid or double dose of racemic ketoprofen free acid
[9] = Dissolution rate in water; type: physicochemical; conditions: compared with compound (I)
[10] = background; cited from earlier work

Q: For `CC(C(=O)O)c1cccc(C(=O)c2ccccc2)c1` (racemic) [(R,S)-ketoprofen tromethamine salt], which “% Inhibition (analgesic effect, phenylbenzoquinone test)” value ([1]; intravenously, 0.30 mg/kg (amount of ketoprofen injected)) is on record?
A: 62.9 ± 11.7%

Q: What does the source list for `CC(C(=O)O)c1cccc(C(=O)c2ccccc2)c1` (racemic) [(R,S)-ketoprofen, 2-(3-Benzoylphenyl)propionic acid]?
A: % Inhibition (analgesic effect, phenylbenzoquinone test) ([1]; orally, 30 minutes prior to phenylbenzoquinone, 0.30 mg/kg): 50.0 ± 7.8%; analgesic and antipyretic action ([2]; background): potent analgesic and antipyretic action

Q: With `C[C@H](C(=O)O)c1cccc(C(=O)c2ccccc2)c1` [(+)-(S)-ketoprofen, (+)-(S)-2-(3-benzoylphenyl)propionic acid] as the molecule, how does the analgesic action ([2]; vs the racemic, administered doses being equal) read?
A: faster acting and more potent analgesic than the racemic

Q: For `C[C@H](C(=O)O)c1cccc(C(=O)c2ccccc2)c1` [I, (+)-(S)-2-(3-benzoylphenyl)propionic acid tromethamine salt], which “analgesic effectiveness compared with racemic ketoprofen” value ([1]; phenylbenzoquinone writhing test, intravenous and oral) is on record?
A: same analgesic effectiveness as a racemic ketoprofen double dose

Q: And the hygroscopicity [3]?
A: very low hygroscopicity

Q: What about the “pH in aqueous solution” value [4] of the same molecule?
A: physiologically compatible pH in aqueous solution

Q: And the “analgesic action (onset, response, duration)” value ([5]; vs racemic ketoprofen)?
A: faster onset of analgesic action, an enhanced analgesic response and a longer duration than racemic ketoprofen

Q: And the “analgesic action and response” value ([5]; vs racemic ketoprofen tromethamine salt)?
A: faster action and enhanced analgesic response than the racemic ketoprofen tromethamine salt

Q: What about the toxicity [6] of the same molecule?
A: lower toxicity

Q: And the gastrolesive effect ([7]; animals, vs (+)-(S)-, (-)-(R)- and racemic ketoprofen)?
A: much less gastrolesive

Q: What about the gastrolesive effect ([7]; vs corresponding free acid or racemic ketoprofen) of the same molecule?
A: markedly less gastrolesive than the corresponding free acid or the racemic ketoprofen

Q: And the “plasmatic levels of the active (+)-(S) enantiomer” value [8]?
A: higher plasmatic levels of the active (+)-(S) enantiomer in a far shorter time

Q: For `C[C@H](C(=O)O)c1cccc(C(=O)c2ccccc2)c1` [L-lysine salt], which dissolution rate [9] is on record?
A: significantly lower

Q: With `CC(C(=O)O)c1cccc(C(=O)c2ccccc2)c1` (stereo not drawn) [sodium salt] as the molecule, how does the hygroscopicity [10] read?
A: high hygroscopicity
